Measurements taken from patent publication US20160355530A1, “HEPATITIS C INHIBITORS AND USES THEREOF” (AbbVie Inc., priority 2010, published 2016).
Read-outs that look alike come from different tables or passages of the source.

How the values were obtained:
[1] = system: chimeric replicon with genotype 2b NS5B; experiment: microbe, parasite or virus in culture; type: cell-based, HCV genotype 2b; settings: Hepatitis C virus, read-out: 2b chimera 5% FBS EC50
[2] = system: chimeric replicon with 2a-J6CF-derived NS5B; experiment: microbe, parasite or virus in culture; type: cell-based, HCV genotype 2a; settings: Hepatitis C virus, read-out: 2a chimera 5% FBS EC50
[3] = system: HCV 1b-BB7 subgenomic replicon; experiment: microbe, parasite or virus in culture; type: cell-based, HCV genotype 1b; settings: Hepatitis C virus, stable replicon
[4] = molecular target: T1, HCV NS5B polymerase 1a-H77-C316Y (Hepatitis C virus genotype 1a, UniProt P27958, C2736Y); experiment: biochemical; parameters: species or system HCV genotype 1a
T1 construct: six-histidine tag; made in house; host or cells: E. coli
T1 sequence (P27958 2421-2990 C2736Y): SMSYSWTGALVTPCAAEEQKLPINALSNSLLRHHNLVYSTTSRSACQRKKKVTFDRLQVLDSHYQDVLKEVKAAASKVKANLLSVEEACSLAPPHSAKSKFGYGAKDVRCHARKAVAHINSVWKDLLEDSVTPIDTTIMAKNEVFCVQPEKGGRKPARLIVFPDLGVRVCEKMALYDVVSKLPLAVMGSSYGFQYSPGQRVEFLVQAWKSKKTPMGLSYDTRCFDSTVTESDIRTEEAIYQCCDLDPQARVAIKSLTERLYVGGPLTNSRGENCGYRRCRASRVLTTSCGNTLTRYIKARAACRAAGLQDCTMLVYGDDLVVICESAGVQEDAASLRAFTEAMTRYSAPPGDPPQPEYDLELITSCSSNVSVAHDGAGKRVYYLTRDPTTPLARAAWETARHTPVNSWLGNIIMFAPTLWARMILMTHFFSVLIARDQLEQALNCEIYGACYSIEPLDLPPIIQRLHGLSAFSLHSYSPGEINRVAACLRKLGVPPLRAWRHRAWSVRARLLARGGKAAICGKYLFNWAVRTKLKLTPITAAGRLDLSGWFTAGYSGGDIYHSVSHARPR
Summary of the method: (§1)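 Recombinant NS5B (residues 1–570, His-tagged, E. coli-expressed) copied 5 nM of a 2.1 kb HCV 1b negative-strand 3′-end RNA template with 20 μM CTP, 20 μM ATP and 0.284 μM [3H]UTP for 3 h at 30 °C. Spermine-precipitated RNA was filter-captured and counted, and IC50 was fitted by nonlinear regression.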

[5] = system: HCV NS5B polymerase 1a-H77-C316Y; experiment: biochemical; parameters: species or system HCV genotype 1a; settings: ratio of enzyme IC50s, 1a H77-C316Y / 1a H77
Summary of the method: as §1

[6] = molecular target: T2, HCV NS5B polymerase 1a-H77 (Hepatitis C virus genotype 1a, UniProt P27958); experiment: biochemical; parameters: species or system HCV genotype 1a; settings: enzyme, strain 1a H77; read-out: HCV Polymerase Strain 1a H77 IC50
T2 construct: six-histidine tag; made in house; host or cells: E. coli
T2 sequence (P27958 2421-2990): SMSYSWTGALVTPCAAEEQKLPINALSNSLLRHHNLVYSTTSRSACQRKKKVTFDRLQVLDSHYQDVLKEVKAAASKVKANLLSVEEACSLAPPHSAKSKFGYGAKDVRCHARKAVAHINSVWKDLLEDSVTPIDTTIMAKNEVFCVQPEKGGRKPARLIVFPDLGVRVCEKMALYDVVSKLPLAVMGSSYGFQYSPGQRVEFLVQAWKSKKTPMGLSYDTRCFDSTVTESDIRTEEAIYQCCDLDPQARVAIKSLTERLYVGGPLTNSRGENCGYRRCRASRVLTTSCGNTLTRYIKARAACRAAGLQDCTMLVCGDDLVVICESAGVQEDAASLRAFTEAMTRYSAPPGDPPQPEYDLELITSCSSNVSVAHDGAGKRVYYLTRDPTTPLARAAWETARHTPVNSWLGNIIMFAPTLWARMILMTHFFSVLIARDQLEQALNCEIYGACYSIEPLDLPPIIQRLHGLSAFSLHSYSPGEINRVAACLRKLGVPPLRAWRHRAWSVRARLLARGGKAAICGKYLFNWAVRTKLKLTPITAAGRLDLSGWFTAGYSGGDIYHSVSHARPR
Summary of the method: as §1

[7] = molecular target: T3, HCV NS5B polymerase 1b BK strain (Hepatitis C virus genotype 1b, UniProt P26663); experiment: HCV NS5B polymerase enzymatic inhibition assay, strain 1b BK; type: biochemical; settings: enzyme, strain 1b BK; read-out: HCV Polymerase Strain 1b BK IC50
T3 construct: six-histidine tag; made in house; host or cells: E. coli
T3 sequence (P26663 2420-2989): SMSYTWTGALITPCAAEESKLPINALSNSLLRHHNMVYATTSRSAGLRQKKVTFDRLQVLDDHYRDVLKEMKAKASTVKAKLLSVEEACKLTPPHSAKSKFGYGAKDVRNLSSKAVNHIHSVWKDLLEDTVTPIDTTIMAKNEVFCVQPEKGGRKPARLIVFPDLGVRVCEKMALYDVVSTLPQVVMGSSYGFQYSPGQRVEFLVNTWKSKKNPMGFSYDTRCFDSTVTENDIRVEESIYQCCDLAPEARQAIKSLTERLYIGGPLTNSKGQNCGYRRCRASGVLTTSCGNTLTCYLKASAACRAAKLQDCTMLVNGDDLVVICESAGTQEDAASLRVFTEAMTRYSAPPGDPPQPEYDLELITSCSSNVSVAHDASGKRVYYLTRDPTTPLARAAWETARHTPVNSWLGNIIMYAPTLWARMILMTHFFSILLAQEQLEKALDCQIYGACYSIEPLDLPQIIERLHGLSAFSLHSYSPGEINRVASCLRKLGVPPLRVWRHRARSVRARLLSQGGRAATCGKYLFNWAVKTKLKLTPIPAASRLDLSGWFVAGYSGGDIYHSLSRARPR
Summary of the method: as §1

[8] = system: HCV 1a-H77 subgenomic replicon; experiment: microbe, parasite or virus in culture; type: cell-based, HCV genotype 1a; settings: Hepatitis C virus, stable replicon
[9] = system: chimeric replicon with genotype 4a NS5B; experiment: microbe, parasite or virus in culture; type: cell-based, HCV genotype 4a; settings: Hepatitis C virus, read-out: 4a chimera 5% FBS EC50
[10] = system: chimeric replicon with genotype 3a NS5B; experiment: microbe, parasite or virus in culture; type: cell-based, HCV genotype 3a; settings: Hepatitis C virus, read-out: 3a chimera 5% FBS EC50
[11] = strain 1b BB7, 5% FBS + 40% human plasma, read-out: 1b BB7 5% FBS + 40% Human Plasma EC50
[12] = strain 1b BB7, 5% FBS, no human plasma, read-out: 1b BB7 5% FBS EC50
[13] = strain 1b BB7, 5% FBS, read-out: 1b BB7 5% FBS EC50
[14] = 5% FBS, absence of human plasma, read-out: Stable Replicon 1a H77 5% FBS EC50
[15] = strain 1a H77, 5% FBS + 40% human plasma, read-out: 1a H77 5% FBS + 40% Human Plasma EC50
[16] = strain 1a H77, 5% FBS, no human plasma, read-out: 1a H77 5% FBS EC50
[17] = strain 1a H77, 5% FBS, read-out: 1a H77 5% FBS EC50

## CC(=O)CCCN(c1cc2oc(-c3ccc(F)cc3)c(-c3ncc[nH]3)c2cc1C1CC1)S(C)(=O)=O [Example 73, N-[5-cyclopropyl-2-(4-fluorophenyl)-3-(1H-imidazol-2-yl)-1-benzofuran-6-yl]-N-(4-oxopentyl)methanesulfonamide]
[1]
  EC50: 0.0219 µM
[2]
  EC50: 0.027 µM
[3]; [11]
  EC50: 0.055 µM
[3]; [12]
  EC50: 0.0049 µM
[3]; [13]
  EC50: 0.0049 µM
[4]
  IC50: 0.053 µM
[5]
  C316Y/1a Fold Resistance: 15 fold
[6]
  IC50: 0.0035 µM
[7]
  IC50: 0.015 µM
[8]; [14]
  EC50: 0.0079 µM
[8]; [15]
  EC50: 0.072 µM
[8]; [16]
  EC50: 0.0079 µM
[8]; [17]
  EC50: 0.0079 µM
[9]
  EC50: 0.0425 µM
[10]
  EC50: 0.0029 µM

## CSCCN(c1cc2oc(-c3ccc(F)cc3)c(-c3ncc[nH]3)c2cc1C1CC1)S(C)(=O)=O [Example 74, N-[5-cyclopropyl-2-(4-fluorophenyl)-3-(1H-imidazol-2-yl)-1-benzofuran-6-yl]-N-[2-(methylthio)ethyl]methanesulfonamide]
[1]
  EC50: 0.0578 µM
[2]
  EC50: 0.064 µM
[3]; [11]
  EC50: 0.127 µM
[3]; [12]
  EC50: 0.0065 µM
[3]; [13]
  EC50: 0.0064 µM
[4]
  IC50: 0.107 µM
[5]
  C316Y/1a Fold Resistance: 36 fold
[6]
  IC50: 0.003 µM
[7]
  IC50: 0.013 µM
[8]; [14]
  EC50: 0.0136 µM
[8]; [15]
  EC50: 0.254 µM
[8]; [16]
  EC50: 0.0136 µM
[8]; [17]
  EC50: 0.0136 µM
[9]
  EC50: 0.0865 µM
[10]
  EC50: 0.0045 µM

## CC(=O)CCCCN(c1cc2oc(-c3ccc(F)cc3)c(-c3ncc[nH]3)c2cc1C1CC1)S(C)(=O)=O [Example 77, N-[5-cyclopropyl-2-(4-fluorophenyl)-3-(1H-imidazol-2-yl)-1-benzofuran-6-yl]-N-(5-oxohexyl)methanesulfonamide]
[1]
  EC50: 0.0268 µM
[2]
  EC50: 0.0325 µM
[3]; [11]
  EC50: 0.047 µM
[3]; [12]
  EC50: 0.0057 µM
[3]; [13]
  EC50: 0.0057 µM
[4]
  IC50: 0.049 µM
[5]
  C316Y/1a Fold Resistance: 10 fold
[6]
  IC50: 0.005 µM
[7]
  IC50: 0.01 µM
[8]; [14]
  EC50: 0.006 µM
[8]; [15]
  EC50: 0.066 µM
[8]; [16]
  EC50: 0.006 µM
[8]; [17]
  EC50: 0.006 µM
[9]
  EC50: 0.0427 µM
[10]
  EC50: 0.0049 µM

## CS(=O)(=O)N(CCCS(=O)(=O)N1CCOCC1)c1cc2oc(-c3ccc(F)cc3)c(-c3ncc[nH]3)c2cc1C1CC1 [Example 79, N-[5-cyclopropyl-2-(4-fluorophenyl)-3-(1H-imidazol-2-yl)-1-benzofuran-6-yl]-N-[3-(morpholin-4-ylsulfonyl)propyl]methanesulfonamide]
[1]
  EC50: 0.0993 µM
[2]
  EC50: 0.0906 µM
[3]; [11]
  EC50: 0.062 µM
[3]; [12]
  EC50: 0.0069 µM
[3]; [13]
  EC50: 0.0069 µM
[4]
  IC50: 0.141 µM
[5]
  C316Y/1a Fold Resistance: 26 fold
[6]
  IC50: 0.0055 µM
[7]
  IC50: 0.02 µM
[8]; [14]
  EC50: 0.0147 µM
[8]; [15]
  EC50: 0.117 µM
[8]; [16]
  EC50: 0.0147 µM
[8]; [17]
  EC50: 0.0147 µM
[9]
  EC50: 0.0728 µM
[10]
  EC50: 0.0116 µM

## CS(=O)(=O)N(CCCF)c1cc2oc(-c3ccc(F)cc3)c(-c3ncc[nH]3)c2cc1C1CC1 [Example 85, N-[5-cyclopropyl-2-(4-fluorophenyl)-3-(1H-imidazol-2-yl)-1-benzofuran-6-yl]-N-(3-fluoropropyl)methanesulfonamide]
[1]
  EC50: 0.131 µM
[2]
  EC50: 0.0662 µM
[3]; [11]
  EC50: 0.095 µM
[3]; [12]
  EC50: 0.0098 µM
[3]; [13]
  EC50: 0.0098 µM
[4]
  IC50: 0.088 µM
[5]
  C316Y/1a Fold Resistance: 20 fold
[6]
  IC50: 0.0045 µM
[7]
  IC50: 0.018 µM
[8]; [14]
  EC50: 0.0218 µM
[8]; [15]
  EC50: 0.162 µM
[8]; [16]
  EC50: 0.0218 µM
[8]; [17]
  EC50: 0.0218 µM
[9]
  EC50: 0.0738 µM
[10]
  EC50: 0.0064 µM

## CS(=O)(=O)NCCCN(c1cc2oc(-c3ccc(F)cc3)c(-c3ncc[nH]3)c2cc1C1CC1)S(C)(=O)=O [Example 95, N-[5-cyclopropyl-2-(4-fluorophenyl)-3-(1H-imidazol-2-yl)-1-benzofuran-6-yl]-N-{3-[(methylsulfonyl)amino]propyl}methanesulfonamide]
[1]
  EC50: 0.0808 µM
[2]
  EC50: 0.0331 µM
[3]; [11]
  EC50: 0.0761 µM
[3]; [12]
  EC50: 0.0048 µM
[3]; [13]
  EC50: 0.0048 µM
[4]
  IC50: 0.085 µM
[5]
  C316Y/1a Fold Resistance: 19 fold
[6]
  IC50: 0.0045 µM
[7]
  IC50: 0.013 µM
[8]; [14]
  EC50: 0.0112 µM
[8]; [15]
  EC50: 0.121 µM
[8]; [16]
  EC50: 0.0112 µM
[8]; [17]
  EC50: 0.0112 µM
[9]
  EC50: 0.0461 µM
[10]
  EC50: 0.0057 µM
